Target: T1, AsPC-1 HiBiT-KRASG12D (Homo sapiens, UniProt P01116, G12D)
T1 construct: insert the HiBiT tag onto the N-terminus of one or more of the endogenous KRAS alleles; endogenous in cells; host or cells: AsPC-1 (ATCC CRL-1682), CRISPR-Cas9 knock-in clone, one tagged allele
Assay: HiBiT degradation assay (G12D), AsPC-1 HiBiT-KRASG12D cells
Type: cell-based
Details: 24 hours treatment; for Dmax: ASPC1, AsPC-1 HiBiT-KRASG12D cells, maximum degradation observed; for DC50: AsPC-1 HiBiT-KRASG12D cells, HiBiT luminescence
Outline: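 AsPC-1 cells (homozygous G12D) carrying a CRISPR knock-in N-terminal HiBiT tag on endogenous KRAS were treated with compounds for 24 hours at 37° C, 5% CO2, in triplicate. Alamar blue viability was read first, then cells were washed and lysed with Nano-Glo HiBiT reagent for 45 minutes before luminescence reading.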

T1 sequence (P01116 1-188 isoform P01116-2 G12D): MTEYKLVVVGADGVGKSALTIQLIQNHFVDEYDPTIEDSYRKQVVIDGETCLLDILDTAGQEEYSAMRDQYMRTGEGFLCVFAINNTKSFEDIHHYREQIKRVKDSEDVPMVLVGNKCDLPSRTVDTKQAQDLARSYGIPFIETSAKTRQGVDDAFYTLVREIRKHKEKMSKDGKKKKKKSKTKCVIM

SMILES | Dmax [%] | DC50 [nM]
C#Cc1c(F)ccc2cc(O)cc(-c3ncc4c(N5CC6CCC(C5)N6)nc(OCCN5CCC6(CC5)CN(c5cc(C(C(=O)N7C[C@H](O)C[C@H]7C(=O)N[C@@H](C)c7ccc(-c8ccnn8C)cc7)C(C)C)on5)C6)nc4c3F)c12 (single isomer, unassigned) [Compound 83, (2S,4R)-1-[(2R*)-2-[3-(7-{2-[(4-{3,8-diazabicyclo[3.2.1]octan-3-yl}-7-(8-ethynyl-7-fluoro-3-hydroxynaphthalen-1-yl)-8-fluoropyrido[4,3-d]pyrimidin-2-yl)oxy]ethyl}-2,7-diazaspiro[3.5]nonan-2-yl)-1,2-oxazol-5-yl]-3-methylbutanoyl]-4-hydroxy-N-[(1S)-1-[4-(1-methyl-1H-pyrazol-5-yl)phenyl]ethyl]pyrrolidine-2-carboxamide] | 80 to 100 | < 600
CCc1cccc2cc(O)cc(-c3ncc4c(N5CC6CCC(C5)N6)nc(OC[C@@]56CCCN5[C@@H](COC(=O)N5CCN(c7cc(C(C(=O)N8C[C@H](O)C[C@H]8C(=O)N[C@@H](C)c8ccc(-c9scnc9C)cc8)C(C)C)on7)CC5)CC6)nc4c3F)c12 (single isomer, unassigned) [Compound 108, [(3R,7aS)-7a-{[(4-{3,8-diazabicyclo[3.2.1]octan-3-yl}-7-(8-ethyl-3-hydroxynaphthalen-1-yl)-8-fluoropyrido[4,3-d]pyrimidin-2-yl)oxy]methyl}-hexahydro-1H-pyrrolizin-3-yl]methyl 4-{5-[(2R*)-1-[(2S,4R)-4-hydroxy-2-{[(1S)-1-[4-(4-methyl-1,3-thiazol-5-yl)phenyl]ethyl]carbamoyl}pyrrolidin-1-yl]-3-methyl-1-oxobutan-2-yl]-1,2-oxazol-3-yl}piperazine-1-carboxylate] | 80 to 100 | < 600
CCc1cccc2cc(O)cc(-c3ncc4c(N5CC6CCC(C5)N6)nc(OC[C@]56CCCN5[C@H](COC(=O)N5CCN(c7cc(C(C(=O)N8C[C@H](O)C[C@H]8C(=O)N[C@@H](C)c8ccc(-c9scnc9C)cc8)C(C)C)on7)CC5)CC6)nc4c3F)c12 (single isomer, unassigned) [Compound 109, [(3S,7aR)-7a-{[(4-{3,8-diazabicyclo[3.2.1]octan-3-yl}-7-(8-ethyl-3-hydroxynaphthalen-1-yl)-8-fluoropyrido[4,3-d]pyrimidin-2-yl)oxy]methyl}-hexahydro-1H-pyrrolizin-3-yl]methyl 4-{5-[(2R*)-1-[(2S,4R)-4-hydroxy-2-{[(1S)-1-[4-(4-methyl-1,3-thiazol-5-yl)phenyl]ethyl]carbamoyl}pyrrolidin-1-yl]-3-methyl-1-oxobutan-2-yl]-1,2-oxazol-3-yl}piperazine-1-carboxylate] | 80 to 100 | < 600
CCc1cccc2cc(O)cc(-c3ncc4c(N5CC6CCC(C5)N6)nc(OCCN5CCC(CCC6CN(c7cc([C@H](C(=O)N8C[C@H](O)C[C@H]8C(=O)N[C@@H](C)c8ccc(-c9scnc9C)cc8)C(C)C)on7)C6)CC5)nc4c3F)c12 (single isomer, unassigned) [Compound 250, (2S,4R)-1-[(2R*)-2-(3-{3-[2-(1-{2-[(4-{3,8-diazabicyclo[3.2.1]octan-3-yl}-7-(8-ethyl-3-hydroxynaphthalen-1-yl)-8-fluoropyrido[4,3-d]pyrimidin-2-yl)oxy]ethyl}piperidin-4-yl)ethyl]azetidin-1-yl}-1,2-oxazol-5-yl)-3-methylbutanoyl]-4-hydroxy-N-[(1S)-1-[4-(4-methyl-1,3-thiazol-5-yl)phenyl]ethyl] pyrrolidine-2-carboxamide] | 80 to 100 | < 600
CCc1cccc2cc(O)cc(-c3ncc4c(N5CC6CCC(C5)N6)nc(OCCN5CCC(C(C)(C)N6CCN(c7cc([C@H](C(=O)N8C[C@H](O)C[C@H]8C(=O)N[C@@H](C)c8ccc(-c9scnc9C)cc8)C(C)C)on7)CC6)CC5)nc4c3F)c12 (single isomer, unassigned) [Compound 251, (2S,4R)-1-[(2R*)-2-(3-{4-[2-(1-{2-[(4-{3,8-diazabicyclo[3.2.1]octan-3-yl}-7-(8-ethyl-3-hydroxynaphthalen-1-yl)-8-fluoropyrido[4,3-d]pyrimidin-2-yl)oxy]ethyl}piperidin-4-yl)propan-2-yl]piperazin-1-yl}-1,2-oxazol-5-yl)-3-methylbutanoyl]-4-hydroxy-N-[(1S)-1-[4-(4-methyl-1,3-thiazol-5-yl)phenyl]ethyl] pyrrolidine-2-carboxamide] | 80 to 100 | < 600
CCc1cccc2cc(O)cc(-c3ncc4c(N5CC6CCC(C5)N6)nc(OCCN5CCC(CCC6CN(c7cc([C@@H](C(=O)N8C[C@H](O)C[C@H]8C(=O)N[C@@H](C)c8ccc(-c9scnc9C)cc8)C(C)C)on7)C6)CC5)nc4c3F)c12 (single isomer, unassigned) [Compound 253, (2S,4R)-1-[(2R*)-2-(3-{3-[2-(1-{2-[(4-{3,8-diazabicyclo[3.2.1]octan-3-yl}-7-(8-ethyl-3-hydroxynaphthalen-1-yl)-8-fluoropyrido[4,3-d]pyrimidin-2-yl)oxy]ethyl}piperidin-4-yl)ethyl]azetidin-1-yl}-1,2-oxazol-5-yl)-3-methylbutanoyl]-4-hydroxy-N-[(1S)-1-[4-(4-methyl-1,3-thiazol-5-yl)phenyl]ethyl] pyrrolidine-2-carboxamide] | 20 to 60 | 1000 to 3000
CCc1cccc2cc(O)cc(-c3ncc4c(N5CC6CCC(C5)N6)nc(OCCN5CCC(C(C)(C)N6CCN(c7cc([C@@H](C(=O)N8C[C@H](O)C[C@H]8C(=O)N[C@@H](C)c8ccc(-c9scnc9C)cc8)C(C)C)on7)CC6)CC5)nc4c3F)c12 (single isomer, unassigned) [Compound 254, (2S,4R)-1-[(2R*)-2-(3-{4-[2-(1-{2-[(4-{3,8-diazabicyclo[3.2.1]octan-3-yl}-7-(8-ethyl-3-hydroxynaphthalen-1-yl)-8-fluoropyrido[4,3-d]pyrimidin-2-yl)oxy]ethyl}piperidin-4-yl)propan-2-yl]piperazin-1-yl}-1,2-oxazol-5-yl)-3-methylbutanoyl]-4-hydroxy-N-[(1S)-1-[4-(4-methyl-1,3-thiazol-5-yl)phenyl]ethyl] pyrrolidine-2-carboxamide] | 20 to 60 | 600 to 1000
CCc1cccc2cc(O)cc(-c3ncc4c(N5CC6CCC(C5)N6)nc(OCCN5CCC(CC6CN(c7cc([C@H](C(=O)N8C[C@H](O)C[C@H]8C(=O)N[C@@H](C)c8ccc(-c9ccnn9C)cc8)C(C)C)on7)C6)CC5)nc4c3F)c12 (single isomer, unassigned) [Compound 264, (2S,4R)-1-[(2R*)-2-(3-{3-[(1-{2-[(4-{3,8-diazabicyclo[3.2.1]octan-3-yl}-7-(8-ethyl-3-hydroxynaphthalen-1-yl)-8-fluoropyrido[4,3-d]pyrimidin-2-yl)oxy]ethyl}piperidin-4-yl)methyl]azetidin-1-yl}-1,2-oxazol-5-yl)-3-methylbutanoyl]-4-hydroxy-N-[(1S)-1-[4-(1-methyl-1H-pyrazol-5-yl)phenyl]ethyl] pyrrolidine-2-carboxamide] | 80 to 100 | < 600
CCc1cccc2cc(O)cc(-c3ncc4c(N5CC6CCC(C5)N6)nc(OCCN5CCC(CC6CN(c7cc([C@@H](C(=O)N8C[C@H](O)C[C@H]8C(=O)N[C@@H](C)c8ccc(-c9ccnn9C)cc8)C(C)C)on7)C6)CC5)nc4c3F)c12 (single isomer, unassigned) [Compound 265, (2S,4R)-1-[(2R*)-2-(3-{3-[(1-{2-[(4-{3,8-diazabicyclo[3.2.1]octan-3-yl}-7-(8-ethyl-3-hydroxynaphthalen-1-yl)-8-fluoropyrido[4,3-d]pyrimidin-2-yl)oxy]ethyl}piperidin-4-yl)methyl]azetidin-1-yl}-1,2-oxazol-5-yl)-3-methylbutanoyl]-4-hydroxy-N-[(1S)-1-[4-(1-methyl-1H-pyrazol-5-yl)phenyl]ethyl]pyrrolidine-2-carboxamide] | 60 to 80 | 1000 to 3000
CCc1cccc2cc(O)cc(-c3cc4nc(OC[C@]56CCCN5[C@H](COC(=O)N5CCN(c7cc(C(C(=O)N8C[C@H](O)C[C@H]8C(=O)N[C@@H](C)c8ccc(-c9scnc9C)cc8)C(C)C)on7)CC5)CC6)nc(N5CC6CCC(C5)N6)c4cn3)c12 (single isomer, unassigned) [Compound 266] | 80 to 100 | < 600
CCc1cccc2cc(O)cc(-c3ccc4c(N5CC6CCC(C5)N6)nc(OC[C@]56CCCN5[C@H](COC(=O)N5CCN(c7cc(C(C(=O)N8C[C@H](O)C[C@H]8C(=O)N[C@@H](C)c8ccc(-c9scnc9C)cc8)C(C)C)on7)CC5)CC6)nc4c3F)c12 (single isomer, unassigned) [Compound 267] | 80 to 100 | < 600
C#Cc1c(F)ccc2cccc(-c3ncc4c(N5CC6CCC(C5)N6)nc(OC[C@]56CCCN5[C@H](COC(=O)N5CCN(c7cc(C(C(=O)N8C[C@H](O)C[C@H]8C(=O)N[C@@H](C)c8ccc(-c9scnc9C)cc8)C(C)C)on7)CC5)CC6)nc4c3F)c12 (single isomer, unassigned) [Compound 270, [(3S,7aR)-7a-{[(4-{3,8-diazabicyclo[3.2.1]octan-3-yl}-7-(8-ethynyl-7-fluoronaphthalen-1-yl)-8-fluoropyrido[4,3-d]pyrimidin-2-yl)oxy]methyl}-hexahydro-1H-pyrrolizin-3-yl]methyl 4-{5-[(2R*)-1-[(2S,4R)-4-hydroxy-2-{[(1S)-1-[4-(4-methyl-1,3-thiazol-5-yl)phenyl]ethyl]carbamoyl}pyrrolidin-1-yl]-3-methyl-1-oxobutan-2-yl]-1,2-oxazol-3-yl}piperazine-1-carboxylate] | 80 to 100 | < 600
CCc1cccc2cc(O)cc(-c3ncc4c(N5CC6CCC(C5)N6)nc(OCCN5CCC(C6CN(c7cc([C@H](C(=O)N8C[C@H](O)C[C@H]8C(=O)N[C@@H](C)c8ccc(-c9scnc9C)cc8)C(C)C)on7)C6)CC5)nc4c3F)c12 (single isomer, unassigned) [Compound 275] | 80 to 100 | < 600

— patent publication US20250206732A1, “COMPOUNDS AND METHODS FOR THE TARGETED DEGRADATION OF KRAS” (Arvinas Operations, Inc., priority 2022, published 2025)
